Reference: patent US20230407243A1, “GENETIC PLATFORM TO INVESTIGATE THE FUNCTIONS OF BACTERIAL DRUG EFFLUX PUMPS” (priority 2022, published 2023)
Where two headings read alike, the source gives them in different places.

Key:
Assay type in all cases: cell-based, Escherichia coli
[1] = system: EKO-35-Pore; test: MIC susceptibility profiling, porinated strain; conditions: for Fold changes of MICs: EKO-35-Pore compared to EKO-35-Pore (reference); for Minimum inhibitory concentration (MIC), Pore EKO-35 / Minimum inhibitory concentration, EKO-35-Pore / MIC: technical duplicate; for MIC: Escherichia coli
In short: (§1)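 Strains carry the fhuA ΔC/Δ4L pore integrated between glmS and pstS under a constitutive promoter, with pore activity checked by vancomycin susceptibility. Overnight LB cultures were adjusted in PBS pH 7.4 to OD600 ~1.0 and diluted 1/2000 into MHB II. 2-fold compound titrations were read by OD600 after 18 h at 37 °C.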

[2] = system: EKO-35 araC::acrB Pore; test: MIC susceptibility profiling, porinated efflux platform; conditions: for Fold changes of MICs: EKO-35 araC::acr-B Pore compared to EKO-35-Pore; for Minimum inhibitory concentration, EKO-35 araC::acrB Pore / MIC: Table 14A, porinated, technical duplicate; for MIC: Escherichia coli, read-out: Minimum inhibitory concentration, EKO-35 araC::acrB Pore
In short: as §1

[3] = system: EKO-35 araC::acrBD408A Pore; test: as above; conditions: for Fold changes of MICs: EKO-35 araC::acrBD408A Pore compared to EKO-35-Pore; for Minimum inhibitory concentration / MIC: EKO-35 araC::acrBD408A Pore, technical duplicate; for MIC: Escherichia coli, read-out: Minimum inhibitory concentration
In short: as §1

[4] = system: EKO-35 araC::acrD Pore; test: as above; conditions: for Fold changes of MICs: EKO-35 araC::acrD Pore compared to EKO-35-Pore; for Minimum inhibitory concentration, EKO-35 araC::acrD Pore / MIC: Table 14A, porinated, technical duplicate; for MIC: Escherichia coli, read-out: Minimum inhibitory concentration, EKO-35 araC::acrD Pore
In short: as §1

[5] = system: EKO-35 araC::emrAB Pore; test: as above; conditions: for Fold changes of MICs: EKO-35 araC::emrAB Pore compared to EKO-35-Pore; for Minimum inhibitory concentration / MIC: EKO-35 araC::emrAB Pore, technical duplicate; for MIC: Escherichia coli, read-out: Minimum inhibitory concentration
In short: as §1

[6] = system: EKO-35 araC::mdtBC Pore; test: as above; conditions: for Fold changes of MICs: EKO-35 araC::mdtBC Pore compared to EKO-35-Pore; for Minimum inhibitory concentration / MIC: EKO-35 araC::mdtBC Pore, technical duplicate; for MIC: Escherichia coli, read-out: Minimum inhibitory concentration
In short: as §1

[7] = system: EKO-35 araC::mexCD Pore; test: as above; conditions: for Fold changes of MICs: EKO-35 araC::mexCD Pore compared to EKO-35-Pore; for Minimum inhibitory concentration / MIC: EKO-35 araC::mexCD Pore, technical duplicate; for MIC: Escherichia coli, read-out: Minimum inhibitory concentration
In short: as §1

[8] = Table 10, with pore, read-out: Minimum inhibitory concentration (MIC), Pore EKO-35
[9] = Table 14A, porinated, read-out: Minimum inhibitory concentration, EKO-35-Pore

Structure (SMILES): N#CC(=NNc1cccc(C(F)(F)F)c1)C(=O)c1ccsc1 [compound 3]
- Fold changes of MICs [1]: 1 fold
- Minimum inhibitory concentration (MIC), Pore EKO-35 ([1]; Table 10, with pore): 320 µg/mL
- Minimum inhibitory concentration, EKO-35-Pore ([1]; Table 14A, porinated): 320 µg/mL
- Fold changes of MICs [2]: 1 fold
- Minimum inhibitory concentration, EKO-35 araC::acrB Pore [2]: 320 µg/mL
- Fold changes of MICs [3]: 1 fold
- Minimum inhibitory concentration [3]: 320 µg/mL
- Fold changes of MICs [4]: 1 fold
- Minimum inhibitory concentration, EKO-35 araC::acrD Pore [4]: 320 µg/mL
- Fold changes of MICs [5]: 1 fold
- Minimum inhibitory concentration [5]: 320 µg/mL
- Fold changes of MICs [6]: 1 fold
- Minimum inhibitory concentration [6]: 320 µg/mL
- Fold changes of MICs [7]: 1 fold
- Minimum inhibitory concentration [7]: 320 µg/mL

Structure (SMILES): Nc1ccc(S(=O)(=O)Nc2nccs2)cc1 [Sulfathiazole]
- Fold changes of MICs [1]: 1 fold
- Fold changes of MICs [2]: 2 fold
- MIC [2]: 10 µg/mL
- Fold changes of MICs [3]: 0 fold
- MIC [3]: 1.25 µg/mL
- Fold changes of MICs [4]: 1 fold
- Fold changes of MICs [5]: 2 fold
- MIC [5]: 10 µg/mL
- Fold changes of MICs [6]: 1 fold
- Fold changes of MICs [7]: 1 fold

Structure (SMILES): O=[N+]([O-])c1ccc2c(c1)C(=NO)c1cc([N+](=O)[O-])ccc1-2 [compound 11]
- Fold changes of MICs [1]: 1 fold
- Minimum inhibitory concentration (MIC), Pore EKO-35 ([1]; Table 10, with pore): 0.078 µg/mL
- Minimum inhibitory concentration, EKO-35-Pore ([1]; Table 14A, porinated): 0.078 µg/mL
- Fold changes of MICs [2]: 1024 fold
- Minimum inhibitory concentration, EKO-35 araC::acrB Pore [2]: 80 µg/mL
- Fold changes of MICs [3]: 1 fold
- Minimum inhibitory concentration [3]: 0.078 µg/mL
- Fold changes of MICs [4]: 4 fold
- Minimum inhibitory concentration, EKO-35 araC::acrD Pore [4]: 0.313 µg/mL
- Fold changes of MICs [5]: 16 fold
- Minimum inhibitory concentration [5]: 1.25 µg/mL
- Fold changes of MICs [6]: 1 fold
- Minimum inhibitory concentration [6]: 0.078 µg/mL
- Fold changes of MICs [7]: 8 fold
- Minimum inhibitory concentration [7]: 0.625 µg/mL

Structure (SMILES): [H]/N=C(/N)N[C@H]1[C@H](O)[C@@H](O)[C@H](O[C@@H]2O[C@@H](C)[C@](O)(C=O)[C@H]2O[C@@H]2O[C@@H](CO)[C@H](O)[C@@H](O)[C@@H]2NC)[C@@H](N/C(N)=N\[H])[C@@H]1O [Streptomycin]
- Fold changes of MICs [1]: 1 fold
- MIC [1, 8]: 3.12 µg/mL
- MIC [1, 9]: 3.12 µg/mL
- Fold changes of MICs [2]: 2 fold
- MIC [2]: 6.25 µg/mL
- Fold changes of MICs [3]: 1 fold
- MIC [3]: 1.56 µg/mL
- Fold changes of MICs [4]: 1 fold
- MIC [4]: 3.12 µg/mL
- Fold changes of MICs [5]: 1 fold
- MIC [5]: 3.12 µg/mL
- Fold changes of MICs [6]: 1 fold
- MIC [6]: 3.12 µg/mL
- Fold changes of MICs [7]: 1 fold
- MIC [7]: 3.12 µg/mL

Structure (SMILES): O=C(Nc1ccccc1)Nc1ccc(Br)c(C(F)(F)F)c1 [compound 6]
- Fold changes of MICs [1]: 1 fold
- Minimum inhibitory concentration (MIC), Pore EKO-35 ([1]; Table 10, with pore): 320 µg/mL
- Minimum inhibitory concentration, EKO-35-Pore ([1]; Table 14A, porinated): 320 µg/mL
- Fold changes of MICs [2]: 1 fold
- Minimum inhibitory concentration, EKO-35 araC::acrB Pore [2]: 320 µg/mL
- Fold changes of MICs [3]: 1 fold
- Minimum inhibitory concentration [3]: 320 µg/mL
- Fold changes of MICs [4]: 1 fold
- Minimum inhibitory concentration, EKO-35 araC::acrD Pore [4]: 320 µg/mL
- Fold changes of MICs [5]: 1 fold
- Minimum inhibitory concentration [5]: 320 µg/mL
- Fold changes of MICs [6]: 1 fold
- Minimum inhibitory concentration [6]: 320 µg/mL
- Fold changes of MICs [7]: 1 fold
- Minimum inhibitory concentration [7]: 320 µg/mL

Structure (SMILES): CN(C)c1ccc(O)c2c1C[C@H]1C[C@H]3[C@H](N(C)C)C(O)=C(C(N)=O)C(=O)[C@@]3(O)C(O)=C1C2=O [minocycline]
- Fold changes of MICs [1]: 1 fold
- MIC [1, 8]: 0.049 µg/mL
- MIC [1, 9]: 0.049 µg/mL
- Fold changes of MICs [2]: 8 fold
- MIC [2]: 0.391 µg/mL
- Fold changes of MICs [3]: 1 fold
- MIC [3]: 0.049 µg/mL
- Fold changes of MICs [4]: 2 fold
- MIC [4]: 0.098 µg/mL
- Fold changes of MICs [5]: 1 fold
- MIC [5]: 0.049 µg/mL
- Fold changes of MICs [6]: 1 fold
- MIC [6]: 0.049 µg/mL
- Fold changes of MICs [7]: 1 fold
- MIC [7]: 0.049 µg/mL
